Assay results published in patent publication US12570657B2, “Mesylate salts of heterocyclic cytokinins, compositions containing these derivatives and use thereof” (UNIVERZITA PALACKEHO V OLOMOUCI, priority 2020, dated 2026).
Where two headings read alike, the source gives them in different places.

Experiments:
[1] = tested on: K562 (chronic myeloid leukemia); assay: In vitro cytotoxicity, Calcein AM assay, K-562; type: cell-based; details: 3-day Calcein-AM assay
Outline: (§1)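 Metabolic viability assay, 72 h compound exposure of cells pre-incubated 12 h after seeding (~10,000 cells/well, 10% FBS, 2 mM L-glutamine); 1 h Calcein AM at 1 μg/ml final, green fluorescence measured against DMSO-treated controls.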

[2] = tested on: winter wheat leaf segments; assay: Senescence bioassay: retention of chlorophyll in excised winter wheat leaf tips; type: in vivo, Triticum aestivum cv. Hereward; details: chlorophyll retention at concentration with highest activity; 10^−4 M BAP = 100%
Procedure: Seeds of winter wheat, Triticum aestivum cv. Hereward, were washed under running water for 24 hours and then sown on vermiculite soaked with Knop's solution. They were placed in a growth chamber at 25° C. with a 16/8 h light/dark period at 50 μmol·m^−2·s^−1. After 7 days, the first leaf was fully developed and the second leaf had started to grow. A tip section of the first leaf, approximately 35 mm long, was removed from 5 seedlings and trimmed slightly to a combined weight of 100 mg. The basal ends of the five leaf tips were placed in the wells of a microtiter polystyrene plate containing 150 μl of each tested compound solution. The entire plate was inserted into a plastic box lined with paper tissues soaked in distilled water to prevent leaf sections from drying out. After 96 h incubation in the dark at 25° C., the leaves were removed and chlorophyll extracted by heating at 80° C. for 10 min in 5 ml of 80% ethanol (v/v). The sample volume was then restored to 5 ml by the addition of 80% ethanol (v/v). The absorbance of the extract was recorded at 665 nm. In addition, chlorophyll extracts from fresh leaves and leaf tips incubated in deionised water were measured. […] Relative activity of the compound at this concentration was calculated (Tab. 3). The activity obtained for 10^−4 M 6-benzylaminopurine (BAP) was postulated as 100%. The values shown are means of five replicates and the whole experiment was repeated twice. The tested cytokinin bases were dissolved in dimethylsulfoxide (DMSO) and the solution brought up to 10^−3 M with distilled water. Cytokinin mesylate salts which are more water-soluble (BAP mesylate, meta-topolin mesylate and kinetin mesylate) could be directly dissolved to form a 10^−3 M solution in distilled water.

[3] = Aqueous solubility: concentration of saturated solution by HPLC; type: physicochemical; details: for solubility thermodynamic: thermodynamic from solid
Procedure: Aqueous solubility was measured using the following protocol. Supersaturated solution of meta-topolin mesylate salt was prepared. The solutions were filtered off from visible undissolved particles of the salt to obtain homogenic saturated solution. Saturated solution was diluted 1:10 000 and measured using HPLC Alliance Waters 2690 with C18 Symmetry column with the diameter 2.1 mm and 150 mm length with a porosity of 5 μm. The sample was dissolved in the mobile phase (MeOH: HCOONH4-1:9). The sample was washed with a methanol gradient (10-90%, 35 min) at pH 4 and a flow rate of 0.3 ml/min. The absorbances of the components were detected in the UV region at 210-400 nm. The peak area of meta-topolin mesylate salt was 595 027. The standard was measured as shown in the Table 9 below, Obtained peak area was compared to area peaks measured at certain concentration and the final concentration of saturated solution was determined
Solubility of other cytokinin (CK) mesylates was also determined by this method and the concentrations of saturated solutions are given below in Table 10: […]

[4] = tested on: HL-60 (promyelocytic, leukemia); assay: In vitro cytotoxicity, Calcein AM assay, HL60; type: cell-based; details: Homo sapiens, HL-60, 72 h, 3-day Calcein-AM assay
Outline: as §1

[5] = tested on: cytokinin-dependent tobacco callus; assay: Tobacco callus biotest (stimulation of plant cell division); type: cell-based, Nicotiana tabacum L. cv. Wisconsin 38; details: callus growth at concentration with highest activity; 10^−5 M BAP = 100%
[6] = tested on: CEM (T-lymphoblastic leukemia); assay: In vitro cytotoxicity, Calcein AM assay, CEM; type: cell-based; details: 3-day Calcein-AM assay
Outline: as §1

[7] = saturated solution in water, free cytokinin base, read-out: c of free CK base
[8] = saturated solution in water, cytokinin mesylate, read-out: c of CK mesylate

SMILES | solubility thermodynamic [3, 7] [µM] | IC50 ([1]; Homo sapiens, K562, 72 h) [µM] | activity (%) [10^−4 mol · l^−1 BAP = 100%] [2] [%] | IC50 [4] [µM] | activity (%) [10^−5 mol · l^−1 BAP = 100%] [5] [%] | IC50 ([6]; 72 h) [µM] | IC50 ([1]; mesylate) [µM] | solubility thermodynamic [3, 8] [µM] | solubility thermodynamic ([3]; water) [µM] | c of CK mesylate ([3]; saturated solution in water, cytokinin mesylate) | concentration of saturated solution ([3]; water) | solubility thermodynamic ([3]; water, read-out: concentration of saturated solution) [µg/mL] | IC50 ([6]; mesylate) [µM]
COc1cccc(CNc2ncnc3nc[nH]c23)c1 [3MeOBAP, 6-(3-methoxybenzylamino)purine] | 210 | > 167 | 101 | > 167 | 76 | > 167 | – | – | – | – | – | – | –
CS(=O)(=O)O.c1ccc(CNc2ncnc3nc[nH]c23)cc1 [BAP mesylate, 6-benzylaminopurine mesylate] | – | – | 108 | – | 104 | – | > 167 | 354000 | – | – | – | – | –
c1ccc(CNc2ncnc3nc[nH]c23)cc1 [BAP, 6-benzylaminopurine] | – | 139 | 100 | > 167 | 100 | > 167 | – | – | 370 | – | – | – | –
CS(=O)(=O)O.Oc1cccc(CNc2ncnc3nc[nH]c23)c1 [mT mesylate, 6-(3-hydroxybenzylamino)purine mesylate] | – | – | 109 | – | 111 | – | 142 | 24000 | – | 24,011 mM | approximately 24010,81 μM | 8000 | > 167

Further lines, with some results ahead:

solubility thermodynamic [3, 7] [µM] | SMILES | IC50 ([1]; Homo sapiens, K562, 72 h) [µM] | activity (%) [10^−4 mol · l^−1 BAP = 100%] [2] [%] | IC50 [4] [µM] | activity (%) [10^−5 mol · l^−1 BAP = 100%] [5] [%] | IC50 ([6]; 72 h) [µM] | IC50 ([1]; mesylate) [µM] | solubility thermodynamic [3, 8] [µM] | solubility thermodynamic ([3]; water) [µM] | c of CK mesylate ([3]; saturated solution in water, cytokinin mesylate) | concentration of saturated solution ([3]; water) | solubility thermodynamic ([3]; water, read-out: concentration of saturated solution) [µg/mL] | IC50 ([6]; mesylate) [µM]
60 | Oc1cccc(CNc2ncnc3nc[nH]c23)c1 [meta-topolin (mT), 6-(3-hydroxybenzylamino)purine] | 128 | 117 | 79.2 | 105 | 90.1 | – | – | – | – | 60 µg/mL | – | –
30 | Oc1ccccc1CNc1ncnc2nc[nH]c12 [ortho-topolin (oT), 6-(2-hydroxybenzylamino)purine] | > 167 | 67 | 78 | 86 | 69.2 | – | – | – | – | – | – | –
